Structures can show the parent of a compound that is named as a salt.
Target: T1, human serotonin transporter (hSERT) (Homo sapiens, UniProt P31645)
T1 construct: expressed in transfected cells; host or cells: HEK-293 (human embryonic kidney cells), stably transfected
Experiment: Inhibition of 3H-Serotonin uptake into HEK-293 cells stably transfected with hSERT
Format: cell-based
Settings: not given
Procedure: A number of compounds were tested for biological activity by their ability to inhibit the uptake of serotonin by human serotonin transporters as follows.
Human embryonic kidney cells (HEK-293) stably transfected with either the human serotonin transporter (hSERT), noradrenaline transporter (hNET) or dopamine transporter (hDAT) were cultured under standard cell culture techniques (cells were grown at 37° C and 5% CO2 in DMEM-culture media (supplemented with 10% dialysed foetal calf serum (FCS), 2 mM 1-glutamine and 250 μg/ml geneticin)). Cells were harvested for the assay to yield a cell suspension of 750,000 cells/ml.
(i) Determination of inhibitor potency
All test compounds were dissolved in 100% DMSO and diluted down in assay buffer to give appropriate test concentrations. Assays were carried out in 96-well filter bottom plates. Cells (7500 cells/assay well) were pre-incubated in standard assay buffer containing either test compound, standard inhibitor or compound vehicle (1 % DMSO) for 5 minutes. Reactions were started by addition of either ^3H-Serotonin, ^3H-Noradrenaline or ^3H-Dopamine substrates. All reactions were carried out at room temperature in a shaking incubator. Incubation times were 5 minutes for the hSERT and hDAT assays and 15 minutes for the hNET assay. Reactions were terminated by removal of the reaction mixture using a vacuum manifold followed by rapid washing with ice cold assay buffer. The quantity of ^3H-substrate incorporated into the cells was then quantified.
Assay plates were dried in a microwave oven, scintillation fluid added, and radioactivity measured.
(iii) Standard Assay Buffer Composition:
Note: The pH of the buffer was adjusted to 7.40 with 1 M NaOH before addition of CaCI2 and pargyline.
(iv) Summary of Assay Parameters

T1 sequence (P31645 whole entry): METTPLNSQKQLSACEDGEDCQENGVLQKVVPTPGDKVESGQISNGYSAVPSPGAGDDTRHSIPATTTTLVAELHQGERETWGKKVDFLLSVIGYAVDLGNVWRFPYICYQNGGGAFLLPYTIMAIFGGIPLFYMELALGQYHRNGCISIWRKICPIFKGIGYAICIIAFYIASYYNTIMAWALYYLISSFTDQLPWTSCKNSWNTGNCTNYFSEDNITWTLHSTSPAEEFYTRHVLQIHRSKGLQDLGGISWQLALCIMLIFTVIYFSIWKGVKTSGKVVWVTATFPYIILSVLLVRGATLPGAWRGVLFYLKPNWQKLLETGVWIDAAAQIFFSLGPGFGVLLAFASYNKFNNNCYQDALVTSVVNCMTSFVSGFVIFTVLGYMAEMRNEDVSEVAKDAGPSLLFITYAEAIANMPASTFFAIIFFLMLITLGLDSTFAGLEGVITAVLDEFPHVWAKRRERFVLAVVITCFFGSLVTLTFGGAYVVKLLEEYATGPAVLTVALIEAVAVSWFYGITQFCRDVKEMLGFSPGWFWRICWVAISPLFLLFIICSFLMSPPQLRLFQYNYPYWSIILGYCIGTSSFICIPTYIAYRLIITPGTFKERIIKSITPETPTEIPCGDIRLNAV

| SMILES | IC50 [nM] |
| --- | --- |
| CNCc1cc(-n2ccnn2)ccc1Oc1ccc(SC)cc1 [Example 181, N-Methyl-N-[2-[4-(methylsulfanyl)phenoxy]-5-(1 H-1,2,3-triazol-1-yl)benzyl]amine] | ≤ 50 |
| CSc1ccc(Oc2ccc(NS(=O)(=O)C(F)(F)F)cc2CN(C)C)cc1 [Example 140, N-{3-[(Dimethylamino)methyl]-4-[4-(methylsulfanyl)phenoxy]phenyl}-(trifluoro)methanesulfonamide] | ≤ 50 |
| CSc1ccc(Oc2ccc(-n3nccn3)cc2CN(C)C)cc1 [Example 183, N,N-Dimethyl-N-[2-[4-(methylsulfanyl)phenoxy]-5-(2 H-1,2,3-triazol-2-yl)benzyl]amine] | ≤ 50 |
| CNCc1cc(-n2cncn2)ccc1Oc1ccc(SC)cc1 [Example 187, N-Methyl-N-[2-[4-(methylsulfanyl)phenoxy]-5-(1 H-1,2,4-triazol-1-yl)benzyl]amine] | ≤ 50 |
| CNCc1cc(Br)ccc1Oc1ccc(SC)cc1 [Example 23, N-{5-Bromo-2-[4-(methylsulfanyl)phenoxy]benzyl}-N-methylamine] | ≤ 50 |
| CNCc1cc(-n2nccn2)ccc1Oc1ccc(SC)cc1 [Example 182, N-methyl-N-[2-[4-(methylsulfanyl)phenoxy]-5-(2 H-1,2,3-triazol-2-yl)benzyl]amine] | ≤ 50 |
| CSc1ccc(Oc2ccc(-n3cnnc3)cc2CN(C)C)cc1 [Example 189, N-[2-[4-(Methylsulfanyl)phenoxy]-5-(4H-1,2,4-triazol-4-yl)benzyl]-N,N-dimethylamine] | ≤ 50 |
| CNCc1cc(-n2ccnc2)ccc1Oc1ccc(SC)cc1 [Example 185, N-[2-[4-(Methylsulfanyl)phenoxy]-5-(1 H-imidazol-1-yl)benzyl]-N-methylamine] | ≤ 50 |

Same assay, conditions: HEK-293 cells transfected with hSERT, 3H-Serotonin uptake, 5 minutes incubation, room temperature; read-out: serotonin re-uptake inhibition (SRI) IC50

| SMILES | IC50 [nM] |
| --- | --- |
| CNCc1cc(C#N)ccc1Oc1ccc(SC)cc1 [Example 87, 3-[(Methylamino)methyl]-4-[4-(methylsulfanyl)phenoxy]benzonitrile] | ≤ 50 |
| CNCc1cc(C(=O)NCCOC)ccc1Oc1ccc(SC)cc1 [Example 170] | ≤ 50 |
| CNCc1cc(C(=O)NC)ccc1Oc1ccc(SC)c(OC)c1 [Example 176] | ≤ 50 |
| COc1ccc(Oc2ccc(SC)cc2)c(CN(C)C)c1 [Example 14] | ≤ 50 |
| CSc1ccc(Oc2ccc(C(N)=O)cc2CN(C)C)cc1 [Example 91, 3-[(Dimethylamino)methyl]-4-[4-(methylsulfanyl)phenoxy]benzamide] | ≤ 50 |
| CSc1ccc(Oc2ccc(Cl)cc2CN(C)C)cc1 [Example 135] | ≤ 50 |
| CSc1ccc(Oc2ccc(C#N)cc2CN(C)C)cc1 [Example 85] | ≤ 50 |
| CSc1ccc(Oc2ccc(-n3ccnn3)cc2CN(C)C)cc1 [Example 184, N,N-Dimethyl-N-[2-[4-(methylsulfanyl)phenoxy]-5-(1 H-1,2,3-triazol-1-yl)benzyl]-amine] | ≤ 50 |
| CSc1ccc(Oc2ccc(Br)cc2CN(C)C)cc1 [Example 9] | ≤ 50 |
| CSc1ccc(Oc2ccc(-n3cncn3)cc2CN(C)C)cc1 [Example 188, N,N-dimethyl-N-[2-[4-(methylsulfanyl)phenoxy]-5-(1 H-1,2,4-triazol-1-yl)benzyl]-amine] | ≤ 50 |
| CN(C)Cc1cc(CO)ccc1Oc1ccc(OC(F)(F)F)cc1 [Example 157] | ≤ 50 |
| CNCc1cc(NS(C)(=O)=O)ccc1Oc1ccc(SC)cc1 [Example 128, N-{3-[(Methylamino)methyl]-4-[4-(methylsulfanyl)phenoxy]phenyl}methanesulfonamide] | ≤ 50 |
| CNCc1cc(C(=O)N[C@@H](C)CO)ccc1Oc1ccc(SC)cc1 [Example 174] | ≤ 50 |
| CN(C)Cc1ccc(C(N)=O)cc1Oc1ccc(OC(F)(F)F)cc1 [Example 98, 4-[(Dimethylamino)methyl]-3-[4-(trifluoromethoxy)phenoxy]benzamide] | ≤ 50 |
| CNCc1cc(C(N)=O)ccc1Oc1ccc(SC)c(OC)c1 [Example 169, 4-[3-Methoxy-4-(methylsulfanyl)phenoxy]-3-[(methylamino)methyl]benzamide] | ≤ 50 |
| CNCc1cc(CO)ccc1Oc1ccc(SC)cc1 [Example 156, {3-[(Methylamino)methyl]-4-[4-(methylsulfanyl)phenoxy]phenyl}methanol] | ≤ 50 |
| CNCc1cc(-n2ccc(N)n2)ccc1Oc1ccc(SC)cc1 [Example 190, N-{5-(3-Amino-1H-pyrazol-1-yl)-2-[4-(methylsulfanyl)phenoxy]benzyl}-N-methylamine] | ≤ 50 |
| CNCc1cc(N(CCO)S(C)(=O)=O)ccc1Oc1ccc(SC)cc1 [Example 130] | ≤ 50 |
| CN(C)Cc1cc(S(N)(=O)=O)ccc1Oc1ccc(OC(F)(F)F)cc1 [Example 36] | ≤ 50 |
| CNCc1cc(C(N)=O)ccc1Oc1ccc(SC)cc1 [Example 97] | ≤ 50 |
| CNCc1cc(O)ccc1Oc1ccc(SC)cc1 [Example 74, 3-[(Methylamino)methyl]-4-[4-(methylsulfanyl)phenoxy]phenol] | ≤ 50 |

Other lines, results leading:

| IC50 [nM] | SMILES |
| --- | --- |
| ≤ 50 | CN(C)Cc1ccc(CNS(C)(=O)=O)cc1Oc1ccc(OC(F)(F)F)cc1 [Example 120] |
| ≤ 50 | CN(C)Cc1cc(NS(C)(=O)=O)ccc1Oc1ccc(OC(F)(F)F)cc1 [Example 116] |
| ≤ 50 | CNS(=O)(=O)c1ccc(Oc2ccc(C(F)(F)F)cc2)c(CN(C)C)c1 [Example 30] |
| ≤ 50 | CN(C)Cc1cc(CNS(C)(=O)=O)ccc1Oc1ccc(OC(F)(F)F)cc1 [Example 117] |
| ≤ 50 | CN(C)Cc1ccc(C(N)=O)cc1Oc1ccc(C(F)(F)F)cc1 [Example 90, 4-[(Dimethylamino)methyl]-3-[4-(trifluoromethyl)phenoxy]benzamide] |
| ≤ 50 | CN(C)Cc1cc([S+](C)[O-])ccc1Oc1ccc(C(F)(F)F)cc1 (stereo not shown) [Example 147] |
| ≤ 50 | CNC(=O)c1ccc(Oc2ccc(OC(F)(F)F)cc2)c(CN(C)C)c1 [Example 101] |
| ≤ 50 | CN(C)Cc1cc(S(C)(=O)=O)ccc1Oc1ccc(OC(F)(F)F)cc1 [Example 145, N,N-Dimethyl-N-{5-(methylsulfonyl)-2-[4-(trifluoromethoxy)phenoxy]benzyl}amine] |
| ≤ 50 | CNCc1cc(NS(C)(=O)=O)ccc1Oc1ccc(C(F)(F)F)cc1 [Example 121, N-{3-[(Methylamino)methyl]-4-[4-(trifluoromethyl)phenoxy]phenyl}-methanesulfonamide] |
| ≤ 50 | CC[S+]([O-])c1ccc(CN(C)C)c(Oc2ccc(C(F)(F)F)cc2)c1 (stereo not shown) [Example 148] |
| ≤ 50 | CN(C)Cc1cc(C(N)=O)ccc1Oc1ccc(C(F)(F)F)cc1 [Example 95] |
| ≤ 50 | CN(C)Cc1cc(CN)ccc1Oc1ccc(OC(F)(F)F)cc1 [Example 110, N-{5-(Aminomethyl)-2-[4-(trifluoromethoxy)phenoxy]benzyl}-N,N-dimethylamine] |
| ≤ 50 | CN(C)Cc1cc(C(N)=O)ccc1Oc1ccc(OC(F)(F)F)cc1 [Example 94] |
| ≤ 50 | CN(C)Cc1cc(C#N)ccc1Oc1ccc(OC(F)(F)F)cc1 [Example 84] |
| ≤ 50 | CSc1ccc(Oc2ccc(S(N)(=O)=O)cc2CN(C)C)cc1 [Example 28, 3-[(Dimethylamino)methyl]-4-[4-(methylsulfanyl)phenoxy]benzenesulfonamide] |
| ≤ 50 | CN(C)Cc1cc(NS(C)(=O)=O)ccc1Oc1ccc(C(F)(F)F)cc1 [Example 114, N-(3-[(Dimethylamino)methyl]-4-[4-(trifluoromethyl)phenoxy]phenyl} methanesulfonamide] |
| ≤ 50 | CSc1ccc(Oc2ccc(S(=O)(=O)N[C@@H](C)CO)cc2CN(C)C)cc1 [Example 53] |
| ≤ 50 | CN(C)Cc1cc(Br)ccc1Oc1ccc(C(F)(F)F)cc1 [Example 3] |
| ≤ 50 | CSc1ccc(Oc2ccc(OC(F)(F)F)cc2)c(CN(C)C)c1 [Example 141, N,N-Dimethyl-N-{5-(methylsulfanyl)-2-[4-(trifluoromethoxy)phenoxy]benzyl}amine] |

System: not given
Experiment: not given
Settings: not given

| melting point [°C] | SMILES |
| --- | --- |
| 193 to 194 | CSc1ccc(Oc2ccc(S(N)(=O)=O)cc2CN(C)C)cc1 (as salt: hydrochloride) [Example 28, 3-[(Dimethylamino)methyl]-4-[4-(methylsulfanyl)phenoxy]benzenesulfonamide] |

From patent US6448293B1, “Diphenyl ether compounds useful in therapy” (Pfizer Inc., priority 2000, dated 2002)
